# Results as given in patent publication US6689799B1, “1,4-dihydropyridine-5-carboxylic acid ester derivatives and method for the preparation thereof” (Rephartox, priority 1999, dated 2004).
# Read-outs that look alike come from different tables or passages of the source.
# Key:
# HeLa-cells = experiment: Minimal toxic concentration, cell morphology of HeLa-cells; assay type: cell-based
# [1] = tested on: Cytomegalovirus Davis strain; experiment: Cytomegalovirus antiviral activity, Davis strain; assay type: cell-based; details: Human betaherpesvirus 5, read-out: IC50: concentration at which the virus production is inhibited by 50%
# Procedure: (§1) The compounds were tested for antiviral activity by the Rega Institute (Leuven, Belgium). The standard experiments for determining the biological activity of the compounds according to the invention were performed with CMV (Cytomegalovirus), varicella zoster virus, and RSV (respiratory syncytial virus). [table]
# [2] = tested on: Cytomegalovirus AD-169 strain; experiment: Cytomegalovirus antiviral activity, AD-169 strain; assay type: cell-based; details: Human betaherpesvirus 5, AD169, read-out: IC50: concentration at which the virus production is inhibited by 50%
# Procedure: as §1
# [3] = Cytotoxicity, reduction of cell growth (Table 1, CMV); assay type: cell-based; details: Table 1, cytomegalovirus
# [4] = tested on: Respiratory syncytial virus; experiment: Respiratory syncytial virus antiviral activity; assay type: cell-based; details: human respiratory syncytial virus, read-out: IC50: concentration at which the virus production is inhibited by 50%
# Procedure: (§2) The compounds were tested for antiviral activity by the Rega Institute (Leuven, Belgium).
# (§3) The standard experiments for determining the biological activity of the compounds according to the invention were performed with CMV (Cytomegalovirus), varicella zoster virus, and RSV (respiratory syncytial virus).
# TK − VZV 07/1 strain = experiment: microbe, parasite or virus in culture; assay type: cell-based, Varicella zoster virus; details: Human alphaherpesvirus 3, read-out: IC50: concentration at which the virus production is inhibited by 50%
# Procedure: as §2, §3
# TK − VZV YS/R strain = experiment: microbe, parasite or virus in culture; assay type: cell-based, Varicella zoster virus; details: Human alphaherpesvirus 3, read-out: IC50: concentration at which the virus production is inhibited by 50%
# Procedure: as §2, §3
# [5] = Cytotoxicity, reduction of cell growth (Table 2, VZV); assay type: cell-based; details: Table 2, varicella zoster virus
# [6] = microscopically detectable change in normal cell morphology of HeLa-cells
Compound,MTC: Minimal toxic concentration (HeLa-cells),IC50 [1],IC50 [2],CC50 [3],IC50 [4],IC50 (TK − VZV 07/1 strain),IC50 (TK − VZV YS/R strain),CC50 [5],MTC: Minimal toxic concentration (HeLa-cells; [6]),melting point
"4-[{2-(7-Coumarinyloxy)ethoxy}phenyl)-3,5-dimethoxycarbonyl-2,6-dimethyl-1,4-dihydropyridine.ethylacetate [Example 30]",100 mg/mL,,,,,,,,,
"Nc1nc2c(ncn2COC(CO)CO)c(=O)[nH]1 [DHPG, 9-[(1,3-dihydroxy-2-propoxy)methyl]guanine, reference compound]",,1.8 µg/mL,1.8 µg/mL,> 200 µg/mL,,,,,,
"COC(=O)C1=C(C)NC(C)=C(C(=O)OCCOc2cc(=O)oc3ccccc23)C1c1ccccc1 (centres unmarked) [Example 1, 2,6-Dimethyl-4-phenyl-5-methoxycarbonyl-3-[{2-(coumarin-4-yloxy)ethoxy}carbonyl]-1,4-dihydropyridine]",,,,,2.4 µg/mL,1.5 µg/mL,1 µg/mL,4.5 µg/mL,100 mg/mL,
"COC(=O)C1=C(C)NC(C)=C(C(=O)OCCCOc2cc(=O)oc3ccccc23)C1c1ccccc1 (centres unmarked) [Example 4, 3-[{3-(Coumarin-4-yloxy)-1-propoxy}carbonyl]-2,6-dimethyl-5-methoxycarbonyl-4-phenyl-1,4-dihydropyridine]",,,,,0.16 µg/mL,,,,2.8 mg/mL,
"COC(=O)C1=C(C)NC(C)=C(C(=O)OCC(C)(C)COc2cc(=O)oc3ccccc23)C1c1ccccc1 (centres unmarked) [Example 6, 3-[{3-(Coumarin-4-yloxy)-2,2-dimethyl-1-propoxy}carbonyl]-2,6-dimethyl-5-methoxycarbonyl-4-phenyl-1,4-dihydropyridine]",,,,,,2 µg/mL,1 µg/mL,8.5 µg/mL,,
"CCOC(=O)C1=C(C)NC(COc2cc(=O)oc3ccccc23)=C(C(=O)OCC)C1c1cccc([N+](=O)[O-])c1 (centres unmarked) [Example 20, 2-(Coumarin-4-yloxymethyl)-3,5-diethoxycarbonyl-6-methyl-4-(3-nitrophenyl)-1,4-dihydropyridine]",,,,,,0.07 µg/mL,0.05 µg/mL,1.6 µg/mL,,76 to 79 °C
"CCOC(=O)C1=C(C)NC(COc2cc(=O)oc3ccccc23)=C(C(=O)OCC)C1c1ccccc1C(F)(F)F (centres unmarked) [Example 24, 2-(Coumarin-4-yloxymethyl)-3,5-diethoxycarbonyl-6-methyl-4-(2-trifluoromethylphenyl)-1,4-dihydropyridine]",,2.3 µg/mL,2.4 µg/mL,> 200 µg/mL,0.8 µg/mL,2.5 µg/mL,1.5 µg/mL,> 200 µg/mL,4.0 mg/mL,
